Data taken from patent US20240246950A1, “Anilino-Pyrazole Derivatives, Compositions and Methods Thereof” (Ensem Therapeutics, priority 2022, published 2024).
Like-named read-outs stand apart in the source and are kept apart here.

What was measured:
CDK1/cyclinB [1] = target: T1, CDK1/cyclinB (Homo sapiens, UniProt P06493); assay: In vitro kinase Caliper assay CDK1/cyclinB; assay type: biochemical; details: enzyme 1 nM, 28° C. 30 min
Method: (§1) In Vitro Kinase Caliper Assays: CDK2/CycA2, CDK2/CycE1, CDK1/cyclinB and GSK3β
(§2) 1× Kinase buffer (50 mM HEPES pH 7.5, 10 mM MgCl2, 2 mM DTT and 0.01% Brij-35) The test compounds were prepared as 10 mM stock solution in 100% DMSO. The stock solution was then serially diluted 3-fold in 100% DMSO to 10 concentrations. 200 nL of each diluted compound solution was transferred to 384-well plate in duplicate. To each well, 10 μL of enzyme solution containing either CDK2/CycA2, CDK2/CycE1, CDK1/cyclinB, or GSK3β (final concentrations 10 nM, 3 nM, 1 nM, 1 nM respectively) in 1× Kinase buffer and the mix incubated at room temperature for 10 min. To initiate each reaction, 10 μL of peptide solution containing FAM-labelled peptide with final concentration at 3000 nM (FAM-P18 (5-FAM-QSPKKG-CONH2) for CDK2/CycA2, CDK2/CycE1, CDK1/cyclinB proteins, FAM-P15 (5-FAM-KRREILSRRPpSYR—COOH) for GSK30 protein) and ATP (final concentrations 30 μM, 77 μM or 20 μM, respectively) in 1× Kinase buffer was added to each well. All reactions were incubated at 28° C. for 30 min and then terminated by the addition of 30 μL stop buffer (100 mM HEPES pH 7.5, 50 mM EDTA, 0.2% Coating Reagent #3 and 0.015% Brij-35). All samples were then subjected to analysis using Caliper EZ Reader to read conversion values. IC50 values were then calculated by plotting dose-response curves and then using the XLfit application in Excel software.

CDK2/CycA2 [2] = target: T2, CDK2/CycA2 (Homo sapiens, UniProt P24941); assay: In vitro kinase Caliper assay CDK2/CycA2; assay type: biochemical; details: enzyme 10 nM, 28° C. 30 min, read-out: CDK2 cyclinA2 activity assay: IC50
Method: as §1, §2

CDK2/CycE1 [3] = target: T3, CDK2/CycE1 (Homo sapiens, UniProt P24941); assay: In vitro kinase Caliper assay CDK2/CycE1; assay type: biochemical; details: enzyme 3 nM, 28° C. 30 min, read-out: CDK2 cyclinE1 activity assay: IC50
Method: as §1, §2

GSK3β [4] = target: T4, GSK3β (Homo sapiens, UniProt P49841); assay: In vitro kinase Caliper assay GSK3β; assay type: biochemical; details: enzyme 1 nM, 28° C. 30 min
T4 sequence (P49841 whole entry, species assumed): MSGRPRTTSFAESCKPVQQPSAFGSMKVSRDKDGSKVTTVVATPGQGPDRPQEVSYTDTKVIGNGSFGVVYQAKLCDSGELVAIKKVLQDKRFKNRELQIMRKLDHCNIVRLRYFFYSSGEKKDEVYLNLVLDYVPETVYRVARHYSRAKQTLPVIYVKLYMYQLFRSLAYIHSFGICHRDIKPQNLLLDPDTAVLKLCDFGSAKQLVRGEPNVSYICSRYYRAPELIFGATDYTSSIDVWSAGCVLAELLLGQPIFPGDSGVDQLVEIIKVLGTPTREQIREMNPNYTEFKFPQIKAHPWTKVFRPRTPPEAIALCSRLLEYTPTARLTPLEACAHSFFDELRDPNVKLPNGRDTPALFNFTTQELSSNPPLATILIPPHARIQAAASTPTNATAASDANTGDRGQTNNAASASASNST
Method: as §1, §2

OVCAR3 = assay: Cell proliferation (CyQUANT) OVCAR3; assay type: cell-based; details: OVCAR3, 7 days, read-out: Anti-proliferation assay: IC50 (nM) [Cell Line: OVCAR3]
How it was run: (§3)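 Cells were seeded at 2500, 1000 or 3000 cells/well, cultured overnight, then exposed to 3-fold compound dilutions for 7 days (final DMSO at most 0.01%). CyQUANT fluorescence was read at Ex/Em 480/520 nm; % inhibition computed relative to same-plate DMSO wells.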

TOV21G = assay: Cell proliferation (CyQUANT) TOV21G; assay type: cell-based; details: 7 days, read-out: Anti-proliferation assay: IC50 (nM) [Cell Line: TOV21G]
How it was run: as §3

CDK1/cyclinB [5] = target: T1, CDK1/cyclinB; assay: In vitro kinase TR-FRET assay CDK1/cyclinB; assay type: biochemical; details: enzyme 0.3 nM, ATP 56 μM
How it was run: (§4)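 Enzymes at 3 nM (CDK2/CycA2), 0.6 nM (CDK2/CycE1), 0.3 nM (CDK1/cyclinB), 0.6 nM (GSK3β) with ATP at 27, 82, 56, 7.6 μM respectively, 50 nM ULight-4E-BP1 peptide, HEPES pH7.5; 10-point 3-fold dilutions. 1 h reaction at room temperature; Eu-anti-phospho-4E-BP1 TR-FRET (665/615 nm) read; IC50 from dose-response curves.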

CDK2/CycA2 [6] = target: T2, CDK2/CycA2; assay: In vitro kinase TR-FRET assay CDK2/CycA2; assay type: biochemical; details: enzyme 3 nM, ATP 27 μM, read-out: CDK2 cyclinA2 activity assay: IC50
How it was run: as §4

CDK2/CycE1 [7] = target: T3, CDK2/CycE1; assay: In vitro kinase TR-FRET assay CDK2/CycE1; assay type: biochemical; details: enzyme 0.6 nM, ATP 82 μM, read-out: CDK2 cyclinE1 activity assay: IC50
How it was run: as §4

GSK3β [8] = target: T4, GSK3β; assay: In vitro kinase TR-FRET assay GSK3β; assay type: biochemical; details: enzyme 0.6 nM, ATP 7.6 μM
How it was run: as §4

T1 sequence (P06493 whole entry): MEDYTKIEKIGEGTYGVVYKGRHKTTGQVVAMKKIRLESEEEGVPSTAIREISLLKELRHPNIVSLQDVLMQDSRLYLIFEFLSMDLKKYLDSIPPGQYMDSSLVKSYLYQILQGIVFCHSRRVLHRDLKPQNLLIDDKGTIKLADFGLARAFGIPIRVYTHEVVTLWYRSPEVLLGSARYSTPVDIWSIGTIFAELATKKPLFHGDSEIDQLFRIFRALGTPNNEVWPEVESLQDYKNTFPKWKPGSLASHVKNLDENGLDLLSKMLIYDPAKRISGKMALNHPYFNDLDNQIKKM
T1 sequence (P14635 whole entry partner): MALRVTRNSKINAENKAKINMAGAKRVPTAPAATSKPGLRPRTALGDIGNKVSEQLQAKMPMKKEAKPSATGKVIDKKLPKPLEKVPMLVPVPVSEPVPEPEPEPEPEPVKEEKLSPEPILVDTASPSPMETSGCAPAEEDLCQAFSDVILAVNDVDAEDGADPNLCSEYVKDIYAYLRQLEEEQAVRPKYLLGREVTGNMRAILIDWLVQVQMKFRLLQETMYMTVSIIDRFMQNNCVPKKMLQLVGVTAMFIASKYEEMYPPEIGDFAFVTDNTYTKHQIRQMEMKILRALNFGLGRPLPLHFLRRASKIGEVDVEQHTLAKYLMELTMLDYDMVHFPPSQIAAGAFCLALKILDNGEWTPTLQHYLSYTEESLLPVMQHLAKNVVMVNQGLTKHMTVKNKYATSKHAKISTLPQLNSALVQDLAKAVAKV

Row | Molecule | IC50 (CDK1/cyclinB [1]) [nM] | IC50 (CDK2/CycA2 [2]) [nM] | IC50 (CDK2/CycE1 [3]) [nM] | IC50 (GSK3β [4]) [nM] | IC50 (OVCAR3; Homo sapiens, OVCAR-3, 168 h) [nM] | IC50 (TOV21G; Homo sapiens, 168 h) [nM] | IC50 (CDK1/cyclinB [5]) [nM] | IC50 (CDK2/CycA2 [6]) [nM] | IC50 (CDK2/CycE1 [7]) [nM] | IC50 (GSK3β [8]) [nM] | IC50 (OVCAR3) [nM] | IC50 (TOV21G) [nM]
1 | CC(C)NC(=O)O[C@@H]1CC[C@H](c2cc(Nc3ccc4c(=O)[nH]n(C)c4c3)n[nH]2)C1 [Example 1, (1R,3S)-3-(3-((1-methyl-3-oxo-2,3-dihydro-1H-indazol-6-yl)amino)-1H-pyrazol-5-yl)cyclopentyl isopropylcarbamate] | 50 to 500 | < 50 | < 50 | 50 to 500 | ≥ 1000 | ≥ 1000 |  |  |  |  |  | 
2 | CC(C)NC(=O)O[C@@H]1CC[C@H](c2cc(Nc3ccc4c(c3)CCNS4(=O)=O)n[nH]2)C1 [Example 2, (1R,3S)-3-(3-((1,1-dioxido-3,4-dihydro-2H-benzo[e][1,2]thiazin-6-yl)amino)-1H-pyrazol-5-yl)cyclopentyl isopropylcarbamate] | < 50 | < 50 | < 50 | 500 to 1000 | ≤ 500 | ≥ 1000 |  |  |  |  |  | 
3 | CC(C)NC(=O)O[C@@H]1CC[C@H](c2cc(Nc3ccc4c(c3)CNS4(=O)=O)n[nH]2)C1 [Example 3, (1R,3S)-3-(3-((1,1-dioxido-2,3-dihydrobenzo[d]isothiazol-5-yl)amino)-1H-pyrazol-5-yl)cyclopentyl isopropylcarbamate] | < 50 | < 50 | < 50 | 500 to 1000 | ≤ 500 | ≥ 1000 |  |  |  |  |  | 
4 | CC(C)NC(=O)O[C@@H]1CC[C@H](c2cc(Nc3ccc(Cl)c4c3CCS4(=O)=O)n[nH]2)C1 [Example 64, (1R,3S)-3-(3-((7-chloro-1,1-dioxido-2,3-dihydrobenzo[b]thiophen-4-yl)amino)-1H-pyrazol-5-yl)cyclopentyl isopropylcarbamate] |  |  |  |  | ≤ 500 | ≥ 1000 | 50 to 500 | < 50 | < 50 | 50 to 500 |  | 
5 | Cc1ccc(Nc2cc([C@H]3CC[C@@H](OC(=O)NC(C)C)C3)[nH]n2)c2c1S(=O)(=O)CC2 [Example 65, (1R,3S)-3-(3-((7-methyl-1,1-dioxido-2,3-dihydrobenzo[b]thiophen-4-yl)amino)-1H-pyrazol-5-yl)cyclopentyl isopropylcarbamate] |  |  |  |  | ≤ 500 | 500 to 1000 | 50 to 500 | < 50 | < 50 | 50 to 500 |  | 
6 | CC(C)NC(=O)O[C@@H]1CC[C@H](c2cc(Nc3ccc(F)c4c3CNS4(=O)=O)[nH]n2)C1 [Example 66, (1R,3S)-3-(5-((7-fluoro-1,1-dioxido-2,3-dihydrobenzo[d]isothiazol-4-yl)amino)-1H-pyrazol-3-yl)cyclopentyl isopropylcarbamate] |  |  |  |  | ≤ 500 | ≥ 1000 | < 50 | < 50 | < 50 | 50 to 500 |  | 
7 | CC(C)NC(=O)O[C@@H]1CC[C@H](c2cc(Nc3ccc(F)c4c3CN(C)S4(=O)=O)n[nH]2)C1 [Example 67, (1R,3S)-3-{5-[(7-fluoro-2-methyl-1,1-dioxo-2,3-dihydro-1λ^6-benzo[2,1-d][1,2]thiazol-4-yl)amino]-2H-pyrazol-3-yl}cyclopentyl (prop-2-ylamino)methanoate] |  |  |  |  | ≤ 500 | ≥ 1000 | 50 to 500 | < 50 | < 50 | > 1000 |  | 
8 | CC(C)(C)NC(=O)O[C@@H]1CC[C@H](c2cc(Nc3nccc4c3CCS4(=O)=O)n[nH]2)C1 [Example 68, (1R,3S)-3-(3-((1,1-dioxido-2,3-dihydrothieno[3,2-c]pyridin-4-yl)amino)-1H-pyrazol-5-yl)cyclopentyl tert-butylcarbamate] |  |  |  |  | ≤ 500 | ≤ 500 | < 50 | < 50 | < 50 | 50 to 500 |  | 
9 | CC(C)NC(=O)O[C@H]1CC[C@@H](c2cc(Nc3nccc4c3CCS4(=O)=O)n[nH]2)CC1 [Example 69, (1s,4s)-4-{5-[(1,1-dioxo-2,3-dihydro-1λ^6-thieno[3,2-c]pyridin-4-yl)amino]-1H-pyrazol-3-yl}cyclohexyl (prop-2-ylamino)methanoate] |  |  |  |  | 500 to 1000 | ≥ 1000 | 50 to 500 | < 50 | < 50 | > 1000 |  | 
10 | CC(C)NC(=O)O[C@H]1C[C@@H](c2cc(Nc3nccc4c3CCS4(=O)=O)n[nH]2)C1 [Example 70, (1s,3s)-3-(3-((1,1-dioxido-2,3-dihydrothieno[3,2-c]pyridin-4-yl)amino)-1H-pyrazol-5-yl)cyclobutyl isopropylcarbamate] |  |  |  |  | ≤ 500 | ≤ 500 | < 50 | < 50 | < 50 | < 50 |  | 
11 | (1s,4s)-4-{5-[(1,1-dioxo-2,3-dihydro-1λ^6-benzothiophen-5-yl)amino]-2H-pyrazol-3-yl}cyclohexyl (prop-2-ylamino)methanoate [Example 16] |  |  |  |  |  |  | 50 to 500 | < 50 | < 50 | 500 to 1000 | ≤ 500 | ≥ 1000
